Data from patent US20220062379A1, “METHODS AND COMPOSITIONS FOR MODULATING IMMUNE DYSREGULATION” (The General Hospital Corporation, priority 2019, published 2022).
One block for each compound: values may come before it.

Tests used:
TNF = assay: Whole blood cytokine release, TNF (ELISA); type: cell-based; details: diluted human whole blood, LPS 1.5 ng/ml, 18 h, mean ± 95% confidence intervals; for inhibition at 25 µM / inhibition at 50 µM / inhibition at 100 µM: read-out: % Inhibition of cytokine release, relative to vehicle: TNF
Experimental: (§1) Fresh, anonymized, heparinized, human blood from male donors was diluted 1:3 with RPMI containing penicillin and streptomycin. 150 μl diluted blood was added to each well of a 96 well plate then acclimatized to 37° C. and 5% CO2 for 1 hour. Inhibitors were prepared as described below then added to the diluted blood in 25 μl volume. After a further hour at 37° C. with 5% CO2, diluted blood was stimulated with LPS diluted in 25 μl RPMI containing penicillin and streptomycin to a final concentration of 1.5 ng/ml. After 18 h at 37° C. and 5% CO2, diluted blood was centrifuged at 500×g for 5 min and supernatant collected and stored at −20° C. until ELISAs were performed. Data are presented as mean inhibition relative to vehicle control ±95% confidence intervals, n=3-4 independent experiments.
(§2) Inhibitors and vehicles used for resuspension were: Compound 26, EMD Millipore, Cat #5.31237.0001, resuspended in DMSO; PF 06650833, R & D Systems, Cat #6373, resuspended in DMSO; OEPC (oleyloxyethyl phosphorylcholine), Santa Cruz Biotechnology, item # sc-200711, resuspended in DMSO; YM26734, Santa Cruz Biotechnology, item # sc-204410, resuspended in DMSO; Isoquercetin, Cayman Chemical, item #24926, resuspended in DMSO; ISA-2011B, Medchem Express, cat # HY-16937, resuspended in DMSO; Benzamil, TOCRIS, Cat #3380/10, resuspended in water; Cell permeable NFAT inhibitor (11R-VIVIT), Tocris, Cat #5710, resuspended in PBS. ELISAs were performed using Duoset reagents from R&D systems, catalogue # DY210 (human TNF), # DY206 (human IL6), and #DY201 (human IL-1β).

IL6 = assay: Whole blood cytokine release, IL6 (ELISA); type: cell-based; details: diluted human whole blood, LPS 1.5 ng/ml, 18 h, mean ± 95% confidence intervals; for inhibition at 25 µM / inhibition at 50 µM / inhibition at 100 µM: read-out: % Inhibition of cytokine release, relative to vehicle: IL6
Experimental: as §1, §2

IL1β = assay: Whole blood cytokine release, IL-1β (ELISA); type: cell-based; details: diluted human whole blood, LPS 1.5 ng/ml, 18 h, mean ± 95% confidence intervals; for inhibition at 25 µM / inhibition at 50 µM / inhibition at 100 µM: read-out: % Inhibition of cytokine release, relative to vehicle: IL1β
Experimental: as §1, §2

[1] = system: proinflammatory cytokine release; assay: Whole blood cytokine release assay, cytokines not itemised; type: cell-based, human; details: for Effect on (proinflammatory) cytokine release in whole blood assay (in words): in response to LPS stimulation
Experimental: as §1, §2
Where direct chemical modulators of the proposed inflammatory modulators were available, we tested their effect on endothelial permeability using ECIS and/or on the leukocyte inflammatory response using the whole blood assay described above.
Agents used were SJ000291942 (Sigma #SML2087-5MG) and saxagliptin (Santa Cruz Biotechnology #sc-473161), both resuspended in DMSO.

[2] = molecular target: NFATC2 (Nuclear Factor Of Activated T Cells 2) (human)

Compound: 11R-VIVIT
% Inhibition of cytokine release, relative to vehicle: TNF (TNF; 12.5 μM): 23% ± 12.2%
% Inhibition of cytokine release, relative to vehicle: TNF (TNF; 25 μM): 40% ± 7.1%
% Inhibition of cytokine release, relative to vehicle: TNF (TNF; 50 μM): 79% ± 14.3%
% Inhibition of cytokine release, relative to vehicle: IL6 (IL6; 12.5 μM): −10% ± 16.7%
% Inhibition of cytokine release, relative to vehicle: IL6 (IL6; 25 μM): 2% ± 32.9%
% Inhibition of cytokine release, relative to vehicle: IL6 (IL6; 50 μM): 87% ± 17.9%
% Inhibition of cytokine release, relative to vehicle: IL1β (IL1β; 12.5 μM): 32% ± 13.0%
% Inhibition of cytokine release, relative to vehicle: IL1β (IL1β; 25 μM): 48% ± 27.4%
% Inhibition of cytokine release, relative to vehicle: IL1β (IL1β; 50 μM): 51% ± 26.3%

Compound: NC(=NCc1ccccc1)NC(=O)c1nc(Cl)c(N)nc1N [Benzamil]
inhibition at 25 µM (TNF; 25 μM): 4%
inhibition at 50 µM (TNF; 50 μM): 23%
inhibition at 100 µM (TNF; 100 μM): 69%
inhibition at 25 µM (IL6; 25 μM): 11%
inhibition at 50 µM (IL6; 50 μM): 22%
inhibition at 100 µM (IL6; 100 μM): 65%
inhibition at 25 µM (IL1β; 25 μM): 32%
inhibition at 50 µM (IL1β; 50 μM): 48%
inhibition at 100 µM (IL1β; 100 μM): 60%

Compound: CN1CC(=O)N2[C@H](c3c[nH]c4ccc(Cl)cc34)c3cc4c(cc3C[C@H]2C1=O)OCO4 [ISA-2011B]
% Inhibition of cytokine release, relative to vehicle: TNF (TNF; 1 μM): 1% ± 11.2%
% Inhibition of cytokine release, relative to vehicle: TNF (TNF; 10 μM): 17% ± 7.6%
% Inhibition of cytokine release, relative to vehicle: TNF (TNF; 100 μM): 55% ± 8.8%
% Inhibition of cytokine release, relative to vehicle: IL6 (IL6; 1 μM): −7% ± 7.7%
% Inhibition of cytokine release, relative to vehicle: IL6 (IL6; 10 μM): 6% ± 19.7%
% Inhibition of cytokine release, relative to vehicle: IL6 (IL6; 100 μM): 24% ± 19.5%
% Inhibition of cytokine release, relative to vehicle: IL1β (IL1β; 1 μM): 17% ± 9%
% Inhibition of cytokine release, relative to vehicle: IL1β (IL1β; 10 μM): 23% ± 6%
% Inhibition of cytokine release, relative to vehicle: IL1β (IL1β; 100 μM): 86% ± 2.9%
Effect on (proinflammatory) cytokine release in whole blood assay (in words) [1]: inhibits cytokine release

Compound: O=c1c(O[C@@H]2O[C@H](CO)[C@@H](O)[C@H](O)[C@H]2O)c(-c2ccc(O)c(O)c2)oc2cc(O)cc(O)c12 [Isoquertecin, Isoquercetin]
inhibition at 25 µM (TNF; 25 μM): 9%
inhibition at 50 µM (TNF; 50 μM): 23%
inhibition at 100 µM (TNF; 100 μM): 29%
inhibition at 25 µM (IL6; 25 μM): 26%
inhibition at 50 µM (IL6; 50 μM): 31%
inhibition at 100 µM (IL6; 100 μM): 26%
inhibition at 25 µM (IL1β; 25 μM): 15%
inhibition at 50 µM (IL1β; 50 μM): 25%
inhibition at 100 µM (IL1β; 100 μM): 19%

Compound: CCCCCCCCCCCCCCCCCCc1ccc(C(=O)/C=C/C(=O)O)cc1 [OBAA]
Effect on (proinflammatory) cytokine release in whole blood assay (in words) [1]: dose-dependent inhibition

Compound: CCCCCCCC/C=C\CCCCCCCCOCCOP(=O)([O-])OCC[N+](C)(C)C [OEPC, oleyloxyethyl phosphorylcholine]
% Inhibition of cytokine release, relative to vehicle: TNF (TNF; 12.5 μM): −9% ± 17.3%
% Inhibition of cytokine release, relative to vehicle: TNF (TNF; 25 μM): 6% ± 17.4%
% Inhibition of cytokine release, relative to vehicle: TNF (TNF; 50 μM): 37% ± 14.7%
% Inhibition of cytokine release, relative to vehicle: TNF (TNF; 100 μM): 57% ± 6.5%
% Inhibition of cytokine release, relative to vehicle: IL6 (IL6; 12.5 μM): −3% ± 17.6%
% Inhibition of cytokine release, relative to vehicle: IL6 (IL6; 25 μM): 39% ± 14.1%
% Inhibition of cytokine release, relative to vehicle: IL6 (IL6; 50 μM): 65% ± 11.7%
% Inhibition of cytokine release, relative to vehicle: IL6 (IL6; 100 μM): 83% ± 6.2%

Compound: CCc1ccc(OCC(=O)Nc2ccc(F)c([N+](=O)[O-])c2)cc1 [SJ000291942]
Proinflammatory cytokine secretion from whole blood (in words) ([1]; whole blood with and without LPS, BMP receptor signaling agonist, FIG. 81C): enhances proinflammatory cytokine secretion

Compound: CCCCCCCCCCCC(=O)c1c(O)c(C(=O)CCCCCCCCCCC)c(O)c(C2CC(c3ccc(O)cc3)Oc3cc(O)ccc32)c1O (stereo not shown) [YM26734]
% Inhibition of cytokine release, relative to vehicle: TNF (TNF; 12.5 μM): 41% ± 17.6%
% Inhibition of cytokine release, relative to vehicle: TNF (TNF; 25 μM): 55% ± 22.6%
% Inhibition of cytokine release, relative to vehicle: TNF (TNF; 50 μM): 64% ± 26.1%
% Inhibition of cytokine release, relative to vehicle: TNF (TNF; 100 μM): 52% ± 22.7%
% Inhibition of cytokine release, relative to vehicle: IL6 (IL6; 12.5 μM): 35% ± 18.8%
% Inhibition of cytokine release, relative to vehicle: IL6 (IL6; 25 μM): 51% ± 29.5%
% Inhibition of cytokine release, relative to vehicle: IL6 (IL6; 50 μM): 67% ± 21.7%
% Inhibition of cytokine release, relative to vehicle: IL6 (IL6; 100 μM): 67% ± 15.1%
% Inhibition of cytokine release, relative to vehicle: IL1β (IL1β; 12.5 μM): 51% ± 12.0%
% Inhibition of cytokine release, relative to vehicle: IL1β (IL1β; 25 μM): 65% ± 3.5%
% Inhibition of cytokine release, relative to vehicle: IL1β (IL1β; 50 μM): 73% ± 11.3%
% Inhibition of cytokine release, relative to vehicle: IL1β (IL1β; 100 μM): 78% ± 8.9%
Effect on (proinflammatory) cytokine release in whole blood assay (in words) [1]: dose-dependent inhibition

% Inhibition of cytokine release, relative to vehicle (TNF; LPS-stimulated human whole blood, 50 µM 11R-VIVIT) [2]: 79%
Compound: Cell permeable NFAT inhibitor (11R-VIVIT) (peptide)
